Measurements: patent US5041581A (priority 1986, dated 1991)

How the values were obtained:
[1] = system: L1210 cells; test: In vitro growth inhibition of L1210 leukemic cells (96 hours, Coulter Counter); assay type: cell-based, murine; conditions: footnote of Table 5; 5760 min
Procedure: Four ml of cell suspension were added to culture tubes and the appropriate concentration of free PT or L-PT was added (from 0.01 micro g/ml to 10 micro g/ml final concentration). After 96 hours, the cell concentration of control and experimental cultures were calculated with a Coulter Counter (Coulter Electronics, Hialeah, FLA) and the percent inhibition calculated. The following preparations were tested: free PT, DMPG, DMPC:DMPG 7:3, DMPG-PT and DMPC:DMPG 7:3-PT.

[2] = system: L1210 mouse leukemia; test: In vivo antitumor activity against L1210 mouse leukemia (L1210-BDF1 mouse model); set-up: species or system BDF1 mice
Procedure: BDF1 mice were purchased from Charles River (Wilmington, MA). Groups of 6-8 mice weighing 18-22 gm were inoculated ip with 1×10^6 L1210 leukemia cells on day 0. L1210 cells were kept in DBA2 mice were weekly passages between the different experiments. All L-PT preparations were injected ip in volumes of 0.1 to 0.3 ml 24 hours after tumor inoculation. Two different schedules of administration were used: a single injection on day 1 or an injection on days 1, 5 and 9 (multiple). […] Clinical behavior and survival times were monitored until all animals had died. Results were expressed as % T/C (median survival time of treated mice/median survival time of control mice ×100) and number of long-term survivors. Mice living more than 30 days and more than 60 days were considered to be long-term survivors for the single and multiple injection schedule respectively. All L-PT preparations tested for antitumor activity were prepared under sterile conditions on the same day of the experiment.
The antitumor activity against L-1210 murine leukemia of the different L-PT analogs was assessed in an L-1210-BDF, mouse model (tumor inoculation day 0, treatment day 1, ip) as described earlier herein.
These liposome-encapsulated compounds were tested to determine their optimal dose and effectiveness as inhibitors of in vivo tumor growth as described in Example 12.

[3] = system: liver metastases of M5076 reticulosarcoma; test: Treatment of established liver metastases of mouse M5076 reticulosarcoma; assay type: in vivo, mouse (C57BL/6); conditions: for No. Liver Metastases, mean ± SD: day 30, 7.5 mg/kg days 8, 12, 16, 10^5 cells iv, 7.5 mg/kg
Procedure: Animals were treated on days 8, 12, and 16 with
Treated animals were sacrificed on day 30,
Animals were treated on days 4, 8, and 12 with
Treated animals were sacrificed on day 45,

[4] = system: liver metastases of M5076 reticulosarcoma; test: Prophylaxis of liver metastases of mouse M5076 reticulosarcoma; assay type: in vivo, mouse (C57BL/6); conditions: day 21, 10 mg/kg day -1, 10^4 cells iv
Source text: NeodecanoatoRacemic-DACH. Animals were inoculated on day 0 with 10^4
M5076 cells intravenously.
Treated animals were sacrificed on day 21, the livers dissected,
placed in Bouin's fixative, and the number of tumor colonies counted.

[5] = MLV, 48 hours in 0.9% NaCl solution; cited from earlier work

N.N.[Cl][Pt][Cl] [CDDP, Cis-platinum, reference compound]
CDDP ID50 [1]: 0.1 micro g/ml
% T/C ([2]; 7.5 mg/kg × 3 ip, days 1, 5 and 9): 253%
% T/C ([2]; 10 mg/kg ip day 1, Exp. 1): 167%
% T/C ([2]; 10 mg/kg ip day 1, Exp. 3): 189%
Number of Survivors on Day 30 ([2]; 10 mg/kg ip day 1, Exp. 3): 1/6
% T/C ([2]; 10 mg/kg ip day 1, dissolved in saline (Table 8)): 175%
% T/C, mean ([2]; 10 mg/kg, single ip dose, means of three experiments): 178%
Long-term survivors ([2]; single ip dose, more than 30 days): one or two mice of six
No. Liver Metastases, mean ± SD ([3]; listed as Cis-platinum): 114 ± 38
No. Liver Metastases, mean ± SD ([3]; listed as cis-platinum): 114 ±38
animals with 175 or more liver metastases ([3]; day 45, 7.5 mg/kg days 4, 8, 12): 4/6
animals that died before day 45 ([3]; groups of 6, days 4, 8, and 12): Two
No. Liver Metastases, mean ± SD ([4]; listed as Cis-platinum): 256 ± 54
No. Liver Metastases, mean ± SD ([4]; listed as cis-platinum): 256 ±54
stability [5]: 75%
